US20250144054A1, “SMALL MOLECULE STAT3 INHIBITOR FOR TREATING TRIPLE NEGATIVE BREAST CANCER” (UNIVERSITY OF MARYLAND, BALTIMORE, priority 2022, published 2025)

What was measured:
SUM159 cells [1] = assay: Annexin V and PI flow cytometry, SUM159 cells; assay type: cell-based, human; settings: SUM159, 8-12 hours, vs DMSO
Method: Flow cytometry analysis. Flow cytometry was performed to detect cell apoptosis. The APC Annexin V Apoptosis Detection Kit (Biolegend, San Diego, CA, USA) was used for Annexin V staining. Cells were seeded in a 35 mm culture dish at a density of 1×10^5 cells/dish. After overnight incubation, cells were treated with DMSO or LLL12B for 8-12 hours. Cells were harvested and stained with Annexin V-APC and propidium iodide (PI) according to the manufacturer's instructions. After staining, cells were counted using a FACSCanto II flow cytometer (BD Biosciences, San Jose, CA, USA).

caspase-3/7 [2] = assay: Caspase-3/7 activity assay, 4T1 cells; assay type: cell-based, murine; settings: 4T1, 5 hours, vs DMSO
Method: (§1) Caspase-3/7 activity assay. The Caspase-3/7 Fluorescence Assay Kit (Cayman, Ann Arbor, MI, USA) was used to detect the activation of caspase-3/7 and the assay was performed according to the manufacturer's instructions. Briefly, MDA-MB-231, SUM159, and 4T1 cells were seeded in a 96-well plate in triplicate. After overnight incubation, cells were treated with either LLL12B or DMSO for 5 hours. Cells were lysed and processed to measure caspase-3/7 activity and the fluorescence intensity was read (excitation=485 nm; emission=535 nm).

SUM149 xenograft = SUM149 xenograft model in vivo
Source text: Next, the efficacy of LLL12B and Talazoparib was examined in the SUM149 xenograft model in vivo. […] V: Vehicle; L: LLL12B; T: Talazoparib. Western blot analysis further confirmed the inhibition of p-STAT3 in LLL12B and combination treated tumors (FIG. 16D).

STAT3 = assay: IL-6 induced STAT3 phosphorylation, Western blot, T47D cells; assay type: cell-based, human; settings: pretreated 2 hours serum-free, 50 ng/ml IL-6 30 minutes
Method: (A) The chemical structures of LLL12B and LLL12. The carbamate ester bond of LLL12B is hydrolytically cleaved by the tumor-associated plasmin to release LLL12. (B) SUM159 cells were seeded in a 6-well plate and treated with LLL12B for 8 hours. Cells were stained with Phospho-Stat3 (Tyr705) and DAPI (indicated by arrows). Green: P-STAT3 (Y705); Blue: DAPI. T47D (C) and MDA-MB-231 (D) breast cancer cells were pretreated with DMSO or LLL12B in a serum-free medium for 2 hours and stimulated with 50 ng/ml of IL-6, IFN-γ, or EGF for additional 30 minutes. Cells were collected and analyzed by Western blot. GAPDH served as a protein loading control.
Western blot. Cells were collected and total protein was extracted using cell lysis buffer (Cell Signaling Technology, Danvers, MA, USA). Protein concentration was determined using the Pierce BCA Protein Assay Kit (Thermo Fisher Scientific, Waltham, MA, USA) according to the manufacturer's instructions. Equal amounts of protein were separated by 10% SDS-PAGE gels and transferred to PVDF membranes. Membranes were blocked in 5% non-fat milk at room temperature and probed with specific antibodies P-STAT3 (Y705), STAT3, Cyclin D1, Cleaved Caspase-3, P-STAT1 (Y701), STAT1, P-ERK, ERK or GAPDH (1:1000, Cell Signaling Technology, Danvers, MA, USA) at 4° C. overnight. […]

caspase-3/7 [3] = assay: Caspase-3/7 activity assay, MDA-MB-231 cells; assay type: cell-based, human; settings: MDA-MB-231, 5 hours, vs DMSO
Method: as §1

SUM159 cells [4] = assay: Wound healing assay, SUM159 cells; assay type: cell-based, human; settings: SUM159, vs DMSO
Method: Wound healing assay. MDA-MB-231, SUM159, and 4T1 cells were seeded in a 6-well plate and cultured until fully confluent. A straight scratch crossing the monolayer was created using a 200 μl pipette tip and images of scratched areas were taken. Next, cells were treated with DMSO or LLL12B. Then, images were taken until the scratch of DMSO-treated cells was closed and the relative migration (%) was calculated.
Given the relevance between cancer cell migration and metastasis, cell migration was evaluated using wound healing assay following LLL12B and Talazoparib treatment.
In FIG. 12, L: LLL12B; T: Talazoparib; L0.5:0.5 μM LLL12B; L0.25:0.25 μM LLL12B; T0.5:0.5 μM Talazoparib; T10: 10 μM Talazoparib. In FIG. 13, L: LLL12B; T: Talazoparib; L0.5:0.5μ M LLL12B; T10: 10μ M Talazoparib; T20: 20μ M Talazoparib. In FIG. 14, L: LLL12B; T: Talazoparib; L0.5:0.5μ M LLL12B; T10: 10μ M Talazoparib; T20: 20μ M Talazoparib.
L: LLL12B; A: Abemaciclib; L0.5:0.5 μM LLL12B; A2.5:2.5 μM Abemaciclib; A1: 1 μM Abemaciclib

PANC-1 cells = assay: MTT cell viability assay, PANC-1 cells; assay type: cell-based, human; settings: PANC-1, 3 days
Method: The human pancreatic cancer cell lines HPAC and PANC-1 were seeded and allowed to attach for 24 hours. Then cells were treated with different concentrations of LLL12B for 3 days and the cell viability was determined by MTT cell viability assay.

CN(C)C(=O)Oc1cccc2c1C(=O)c1cccc(S(N)(=O)=O)c1C2=O [LLL12B]
percentage of apoptotic cells (SUM159 cells [1]): significantly increased | activation of caspase-3/7 (caspase-3/7 [2]): induced the activation | p-STAT3 in tumors, Western blot (SUM149 xenograft): inhibition | IL-6 induced phosphorylation of STAT3 (Y705) (STAT3): inhibited | activation of caspase-3/7 (caspase-3/7 [3]): induced the activation | wound closure (cell migration) (SUM159 cells [4]): effectively inhibited | cell viability (PANC-1 cells): significantly inhibits
